Data on seven molecules can be found in article PMC12564449, “Multifaceted Biological Activity of Selected Flavone C-Monoglucosides” (International Journal of Molecular Sciences, 2025).

Broadly, the IC50 is the concentration that gives 50% inhibition.

The subject of data set [1] is advanced glycation end-products (AGEs) formation in BSA/methylglyoxal (MGO) model system. The data set can be described thus: Inhibition of AGEs formation, BSA/MGO model system. It is filed as biochemical, bovine. To be noted: for IC50: read-out: IC50 against AGEs formation, BSA-MGO System; for anti-AGEs activity higher in relation to AG: relative to AG. As for the experimental part: (§1) The inhibitory activity against AGEs formation was performed in the bovine serum albumin (BSA)/glucose and BSA/methylglyoxal (MGO) model systems as described recently by Zielińska et al.. Standards of OR, hOR, VT, iVT, and Q were initially dissolved in a small volume of DMSO and then in phosphate buffer (0.1 M, pH 7.4) to obtain 1 mM (DMSO/phosphate buffer; 1:5; v/v). The positive control aminoguanidine (1 mM AG) was used. The percentage (%) of inhibition was obtained from three repetitions (n = 3). The IC50, indicating the concentration of the compound at which formation of AGEs is inhibited by 50%, was determined through linear regression analysis.

The target in data set [2] is T1, angiotensin-converting enzymes (ACE) from porcine kidneys (Sus scrofa, UniProt F1RRW5).
T1 construct: angiotensin-converting enzymes (ACE) from porcine kidneys (EC 3.4.15.1); purchased Sigma (Sigma Chemical Company, Saint Louis, MO, USA); host or cells: porcine kidney
T1 sequence (F1RRW5 34-1309): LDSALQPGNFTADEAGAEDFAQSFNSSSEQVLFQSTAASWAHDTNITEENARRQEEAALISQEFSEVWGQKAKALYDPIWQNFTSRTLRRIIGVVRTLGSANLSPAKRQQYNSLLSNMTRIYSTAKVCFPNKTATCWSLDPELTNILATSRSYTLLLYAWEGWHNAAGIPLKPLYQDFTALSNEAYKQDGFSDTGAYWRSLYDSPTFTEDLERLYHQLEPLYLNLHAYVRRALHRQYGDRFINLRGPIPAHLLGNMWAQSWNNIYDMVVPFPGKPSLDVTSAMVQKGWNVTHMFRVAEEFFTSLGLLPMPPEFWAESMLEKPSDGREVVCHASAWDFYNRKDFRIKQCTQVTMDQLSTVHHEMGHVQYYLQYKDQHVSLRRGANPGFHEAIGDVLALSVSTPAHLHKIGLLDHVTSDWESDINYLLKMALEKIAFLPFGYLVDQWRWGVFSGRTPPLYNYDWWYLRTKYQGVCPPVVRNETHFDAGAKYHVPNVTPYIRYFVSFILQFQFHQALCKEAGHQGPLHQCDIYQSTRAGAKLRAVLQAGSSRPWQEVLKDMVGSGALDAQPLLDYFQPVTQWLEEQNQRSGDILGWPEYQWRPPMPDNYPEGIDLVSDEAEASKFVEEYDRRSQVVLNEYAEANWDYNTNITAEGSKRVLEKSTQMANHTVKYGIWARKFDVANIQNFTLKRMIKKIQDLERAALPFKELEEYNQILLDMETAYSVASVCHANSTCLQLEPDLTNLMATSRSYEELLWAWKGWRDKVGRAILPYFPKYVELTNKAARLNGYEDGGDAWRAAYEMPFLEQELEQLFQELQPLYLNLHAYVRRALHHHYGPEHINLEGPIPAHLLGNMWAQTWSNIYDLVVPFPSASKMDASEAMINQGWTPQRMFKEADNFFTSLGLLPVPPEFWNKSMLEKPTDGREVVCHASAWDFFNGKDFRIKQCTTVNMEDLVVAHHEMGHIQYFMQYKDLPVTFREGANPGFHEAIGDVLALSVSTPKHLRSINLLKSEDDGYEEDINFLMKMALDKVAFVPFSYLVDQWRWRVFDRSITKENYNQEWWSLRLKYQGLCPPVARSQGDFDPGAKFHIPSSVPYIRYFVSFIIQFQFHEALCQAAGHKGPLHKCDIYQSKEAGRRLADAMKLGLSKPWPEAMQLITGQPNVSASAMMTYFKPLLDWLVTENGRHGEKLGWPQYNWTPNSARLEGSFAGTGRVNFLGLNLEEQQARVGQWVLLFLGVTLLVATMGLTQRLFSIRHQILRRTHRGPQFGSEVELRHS
The data set can be described thus: Angiotensin-I-converting enzyme inhibitory activity (fluorometric). The data set is classed as biochemical. As for the experimental part:
Angiotensin converting enzyme (ACE) inhibitory activity was performed according to the method of Sentandreu and Toldra. The details of the procedure were described recently by Zielińska et al.. Standards of OR (luteolin-8-C-glucoside), hOR (luteolin-6-C-glucoside), VT (apigenin-8-C-glucoside), iVT (apigenin-6-C-glucoside), and Q (quercetin) were dissolved in 80% methanol. Each standard was diluted to various concentrations using deionized water. The multiscan microplate fluorometer (Tecan Infinite M1000 PRO, TK Biotech, Warsaw, Poland) was used, and the IC50 value indicating the sample concentration at which 50% inhibition of ACE activity was determined by using linear regression analysis of logarithmic plots. At least 3 replicates for each standard solution were conducted.

Data set [3] has as its target T2, acetylcholinesterase (AChE) (Homo sapiens, UniProt P22303).
T2 construct: purchased Sigma Chemical Co. (Poznań, Poland)
The data set can be described thus: Acetylcholinesterase inhibitory activity. It is filed as biochemical. To be noted: for AChE inhibitory activity, times lower than that of galanthamine: relative to galanthamine. As for the experimental part: The AChE inhibitory activity was evaluated following the methodology adapted from Eldeen et al., and details of the procedure were provided recently by Zielińska et al.. […] All measurements were conducted using a microplate reader (Tecan Infinite M1000 PRO, TK Biotech, Warsaw, Poland). […] At least 3 replicates for each standard solution were carried out.

A short description of data set [4]: Differential pulse voltammetry: anodic peak potentials and antioxidant activity. The data set is classed as physicochemical. To be noted: DPV; for Anodic Peak Potential Epa (mV) Epa1: glassy carbon electrode; for Antioxidant Activity (mM Trolox): area under anodic peaks, Trolox regression; for antioxidant activity lower in relation to the antioxidant activity of Q: relative to quercetin. As for the experimental part: Electrochemical measurements were performed at room temperature (25 ± 2 °C) in a small-volume electrochemical cell using a potentiostat type SP-240 (BioLogic Science Instruments, Seyssinet-Pariset, France) controlled by EC-Lab V11.36 software. Differential pulse voltammograms were obtained with a pulse amplitude of 100 mV, a potential step of 5 mV, and a modulation time of 0.2 s. Four scans were registered for each sample, and the reported data correspond to the average of at least three replicates. The working electrode was a glassy carbon electrode, GCE (3 mm diameter, BASi M-2012, and the auxiliary and reference electrodes were platinum wire (BASi MW-1033) and Ag/AgCl (3 M KCl, BASi-MW-2052). All potentials are quoted against the used reference electrode. Before each scan, the surface of the glassy carbon electrode was polished on a polishing cloth with 0.05 μm alumina paste and ultrasonically rinsed in deionized water. After polishing, the electrode was washed with ultrapure water and dried with absorbent paper. DPV measurements were carried out in a standard solution of flavone C-monoglucosides and quercetin at a final concentration of 250 μM. Before measurements, the standard solutions were diluted in 0.2 M acetate-acetic buffer (in 80% methanol) at pH 5.0 (v/v: 1:1). Buffer solution also served as a supporting electrolyte. For the test purpose, from registered DPV voltammograms, the anodic oxidation potentials (Epa) in mV and the integrated area under anodic peaks in μA were determined.

For data set [5], the system named is advanced glycation end-products (AGEs) formation in BSA/glucose model system. Briefly: Inhibition of AGEs formation, BSA/glucose model system. The data set is classed as biochemical, bovine. The following applies: for IC50: read-out: IC50 against AGEs formation, BSA-Glucose System. The protocol:
as §1

For data set [6] the following is noted: vs. NHE; cited from earlier work.
[7] abbreviates: 0.25 mM standard solutions, acetate-acetic buffer pH 5.0 in 80% methanol, vs. Ag/AgCl.
Where [8] appears, read: ACE from porcine kidneys, linear regression, read-out: IC50 for ACE inhibition.

Where a name gives a salt, the structure may show the parent alone. Read-outs that look alike come from different tables or passages of the source. Marks after values point to notes of the source that are not given here.

T2 sequence (P22303 32-614, species assumed): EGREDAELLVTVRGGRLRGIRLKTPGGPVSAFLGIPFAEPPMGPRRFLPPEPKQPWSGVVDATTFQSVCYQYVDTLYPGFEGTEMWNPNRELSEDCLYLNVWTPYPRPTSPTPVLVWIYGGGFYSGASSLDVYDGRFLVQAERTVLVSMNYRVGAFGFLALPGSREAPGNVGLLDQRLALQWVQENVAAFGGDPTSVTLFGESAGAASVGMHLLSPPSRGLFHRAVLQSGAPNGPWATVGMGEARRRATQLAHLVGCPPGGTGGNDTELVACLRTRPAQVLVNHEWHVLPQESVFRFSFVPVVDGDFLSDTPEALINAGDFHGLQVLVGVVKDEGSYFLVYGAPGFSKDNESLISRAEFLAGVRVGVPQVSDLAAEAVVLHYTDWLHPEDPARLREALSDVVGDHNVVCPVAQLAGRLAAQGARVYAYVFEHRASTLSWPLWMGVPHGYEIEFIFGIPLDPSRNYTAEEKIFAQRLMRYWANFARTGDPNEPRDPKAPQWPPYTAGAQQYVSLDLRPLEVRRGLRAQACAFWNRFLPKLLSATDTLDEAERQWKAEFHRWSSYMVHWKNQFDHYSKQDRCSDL

With `O=c1cc(-c2ccc(O)c(O)c2)oc2c([C@@H]3O[C@H](CO)[C@@H](O)[C@H](O)[C@H]3O)c(O)cc(O)c12` [Orientin (OR), 3′,4′,5,7-tetrahydroxyflavone-8-glucoside], the IC50 in data set [1] stood at 326 ± 19 µM; in data set [2] it was 122 ± 2.66 µM; in data set [3] (linear regression, read-out: IC50 for AChE inhibition), 868 ± 88 nM; in data set [5] it was 73 ± 5 µM. Further, the “anti-AGEs activity higher in relation to AG” value (“anti-AGEs activity higher” below) in data set [1] amounted to 39%. In addition, the “ACE inhibitory activity lower as compared to hOR” value in data set [2] (relative to hOR) is 6.9%. Further, in data set [3], the “AChE inhibitory activity, times lower than that of galanthamine” value is 14–20 times. For the same molecule, the “Anodic Peak Potential Epa (mV) Epa1” value in data set [4] (setting [7]) was 345 ± 6 ^b mV; in data set [4] (0.25 mM standard solutions, acetate-acetic buffer pH 5.0 in 80% methanol, vs. Ag/AgCl, listed as OR) it was 345 mV. Also, the “Anodic Peak Potential Epa (mV) Epa2” value in data set [4] (setting [7]) is 1020 ± 9 ^a mV. In addition, in data set [4], the “Antioxidant Activity (mM Trolox)” value is 3.00 ± 0.14 ^b mM Trolox. In addition, the “antioxidant activity lower in relation to the antioxidant activity of Q” value in data set [4] was found to be 21%.
On to `O=c1c(O)c(-c2ccc(O)c(O)c2)oc2cc(O)cc(O)c12` [Quercetin (Q), 3,3′,4′,5,7-pentahydroxyflavone, reference compound], for which, in data set [1], the IC50 was 466 ± 17 µM and the “anti-AGEs activity higher” value stood at 12%. Further, 1370 ± 77 nM corresponded to half-maximal inhibition in data set [3] (IC50). In data set [4] (setting [7]), the “Anodic Peak Potential Epa (mV) Epa1” value is given as 255 ± 7 ^c mV, the “Anodic Peak Potential Epa (mV) Epa2” value is listed as 510 ± 8 ^c mV and the “Anodic Peak Potential Epa (mV) Epa3” value stood at 1060 ± 10 mV. Moreover, the “Anodic Peak Potential Epa (mV) Epa1” value in data set [4] (0.25 mM standard solutions, acetate-acetic buffer pH 5.0 in 80% methanol, vs. Ag/AgCl, listed as Q) turned out to be 255 mV. For the same molecule, the “Antioxidant Activity (mM Trolox)” value in data set [4] is 3.81 ± 0.19 ^a mM Trolox. The IC50 in data set [5] amounted to 243 ± 12 µM.
Consider `O=c1cc(-c2ccc(O)cc2)oc2cc(O)c([C@@H]3O[C@H](CO)[C@@H](O)[C@H](O)[C@H]3O)c(O)c12` [Isovitexin (iVT), 4′,5,7-trihydroxyflavone-6-glucoside], for which the IC50 in data set [1] was 341 ± 20 µM; in data set [2] (setting [8]), 161 ± 3.27 µM; in data set [3], 1080 ± 11 nM; in data set [5], 214 ± 11 µM. The “Anodic Peak Potential Epa (mV) Epa1” value in data set [4] (setting [7]) is given as 926 ± 8 ^a mV; in data set [4] (0.25 mM standard solutions, acetate-acetic buffer pH 5.0 in 80% methanol, vs. Ag/AgCl, listed as iVT), 926 mV. For the same molecule, the “Antioxidant Activity (mM Trolox)” value in data set [4] is given as 1.06 ± 0.07 ^c mM Trolox.
Turning to `N=C(N)NN` [Aminoquanidine (AG), aminoguanidine hydrochloride, reference compound], the IC50 came out at 531 ± 28 µM in data set [1] and 432 ± 36 µM in data set [5].
Turning to `N[C@@H](CCC(=O)N[C@@H](CS)C(=O)NCC(=O)O)C(=O)O` [Glutathione (GSH), Glutathione], the standard redox potential result in data set [6] is “around −0.23 V”.
Consider `O=c1cc(-c2ccc(O)c(O)c2)oc2cc(O)c([C@@H]3O[C@H](CO)[C@@H](O)[C@H](O)[C@H]3O)c(O)c12` [Homoorientin (hOR), 3′,4′,5,7-tetrahydroxyflavone-6-glucoside], for which, in data set [1], the IC50 was 391 ± 22 µM and the “anti-AGEs activity higher” value amounted to 26%. Besides, the IC50 in data set [2] (setting [8]) worked out at 114 ± 1.23 µM. For the same molecule, in data set [3], the midpoint of inhibition, the IC50, lay at 581 ± 96 nM and the “AChE inhibitory activity, times lower than that of galanthamine” value is reported as 14–20 times. In addition, in data set [4] (setting [7]), the “Anodic Peak Potential Epa (mV) Epa1” value is 336 ± 5 ^b mV and the “Anodic Peak Potential Epa (mV) Epa2” value is listed as 960 ± 9 ^b mV. For the same molecule, in data set [4] (0.25 mM standard solutions, acetate-acetic buffer pH 5.0 in 80% methanol, vs. Ag/AgCl, listed as hOR), the “Anodic Peak Potential Epa (mV) Epa1” value amounted to 336 mV. Besides, in data set [4], the “Antioxidant Activity (mM Trolox)” value is 3.24 ± 0.15 ^b mM Trolox and the “antioxidant activity lower in relation to the antioxidant activity of Q” value amounted to 15%. Besides, in data set [5], the IC50 was found to be 14 ± 8 µM. Moreover, the “anti-AGEs activity times higher in relation to Q” value in data set [5] (relative to Q) is listed as ~17 times. For the same molecule, in data set [5] (relative to VT), the “anti-AGEs activity times higher in relation to VT” value is on record as “about 18 times”. In addition, the “anti-AGEs activity times higher in relation to iVT” value in data set [5] (relative to iVT) is recorded as ~15 times.
For the molecule `O=c1cc(-c2ccc(O)cc2)oc2c([C@@H]3O[C@H](CO)[C@@H](O)[C@H](O)[C@H]3O)c(O)cc(O)c12` [Vitexin (VT), 4′,5,7-trihydroxyflavone-8-glucoside], the IC50 amounted to 437 ± 17 µM in data set [1], 135 ± 2.45 µM in data set [2] (setting [8]), 1280 ± 89 nM in data set [3] and 255 ± 16 µM in data set [5]. Besides, in data set [1], the “anti-AGEs activity higher” value is 18%. In data set [2] (relative to iVT), the “ACE inhibitory activity higher in comparison to iVT” value is 19.6%. Moreover, the “Anodic Peak Potential Epa (mV) Epa1” value in data set [4] (setting [7]) is 925 ± 8 ^a mV; in data set [4] (0.25 mM standard solutions, acetate-acetic buffer pH 5.0 in 80% methanol, vs. Ag/AgCl, listed as VT), 925 mV. The “Antioxidant Activity (mM Trolox)” value in data set [4] was 0.93 ± 0.07 ^c mM Trolox.
